According to patent US20250214977A1, “STAT6 INHIBITORS AND USES THEREOF” (Kymera Therapeutics, Inc., priority 2024, published 2025):
Where “and” joins values, the source holds several entries; their conditions need not be identical. Identical values can stand only once.

Tested on: Phosphorylation of STAT6 in human A549 cells
Experiment: Phosphorylated STAT6 (pSTAT6) flow cytometry assay in human A549 cells
Type: cell-based
Conditions: read-out: STAT6 IL4 pSTAT6 assay in A549 cells: Average IC50
Excerpt: Example 3. Phosphorylated STAT6 (pSTAT6) Flow Cytometry Assay in Human A549 Cells
Phosphorylation of STAT6 in human A549 cells was quantitatively measured using flow cytometry technology.

SMILES	IC50
CCc1ccncc1-c1cc(C2=CCCN(C(=O)CC(=O)O)C2)c(F)c2[nH]c(C(=O)N3CCN(c4ncc(F)cc4OC)CC3)cc12 [Example I-786]	< 100 nM
CCc1ccncc1-c1cc(C2=CCCN(C(=O)CC(=O)O)C2)c(F)c2[nH]c(C(=O)N3Cc4cnn(CC)c4C3)cc12 [Example I-787]	< 100 nM
CCc1cc(C)ncc1-c1cc(C2=CCCN(C(=O)CC(=O)O)C2)c(F)c2[nH]c(C(=O)N3Cc4cnn(CC)c4C3)cc12 [Example I-788]	< 100 nM
CCc1ccncc1-c1cc(C2=CCCN(C(=O)C(=O)O)C2)c(F)c2[nH]c(C(=O)N3CCN(c4ncc(F)cc4OC)CC3)cc12 [Example I-790]	< 100 nM
COc1ncccc1-c1cc(C(=O)N2Cc3cnn(C)c3C2)cc2cc(C3=CCCN(C(=O)CC(=O)O)C3)n(CC3CC3)c12 [Example I-791]	< 100 nM
CCc1nc(C)ccc1-c1cc(C(=O)N2CCN(c3nc(C)c(F)cc3OC)CC2)cc2cc(C3=CCCN(C(=O)CC(=O)O)C3)n(CC3CC3)c12 [Example I-792]	< 100 nM
CCc1ccc(-c2cc(C(=O)N3CCN(c4ncc(F)cc4OC)CC3)cc3cc(C4=CCCN(C(C)=O)C4)n(CC4CC4)c23)c(C)n1 [Example I-793]	< 100 nM
CCc1nc(C)ccc1-c1cc(C(=O)N2CCN(c3ncc(F)cc3OC)CC2)cc2cc(C3=CCCN(C(=O)CC(=O)O)C3)n(CC)c12 [Example I-794]	< 100 nM
COC(=O)CC(=O)N1CCC=C(c2cc3cc(C(=O)N4Cc5cnn(C)c5C4)cc(-c4cccnc4OC)c3n2CC2CC2)C1 [Example I-795]	> 100000 nM
CCc1cnccc1-c1cc(C(=O)N2CCN(c3ncc(F)cc3OC)CC2)cc2cc(C3=CCCN(C(=O)C(=O)O)C3)n(CC3CC3)c12 [Example I-796]	> 100000 nM
CCc1ncccc1-c1cc(C(=O)N2CCN(c3ncc(F)cc3OC)CC2)cc2cc(C3=CCCN(C(=O)C(=O)O)C3)n(CC3CC3)c12 [Example I-797]	> 100000 nM
CCc1ccc(-c2cc(C(=O)N3Cc4cnn(CC)c4C3)cc3cc(C4=CCCN(C(=O)C(=O)O)C4)n(CC4CC4)c23)c(C)n1 [Example I-798]	> 100000 nM
CCOC(=O)C(=O)N1CCC=C(c2cc3cc(C(=O)N4Cc5cnn(CC)c5C4)cc(-c4ccc(CC)nc4C)c3n2CC2CC2)C1 [Example I-799]	> 100000 nM
CCc1nc(C)ccc1-c1cc(C(=O)N2CCN(c3ncc(F)cc3OC)CC2)cc2cc(C3=CCCN(C(=O)CC(=O)O)C3)n(CC(C)C)c12 [Example I-800]	> 100000 nM
CCc1ccc(-c2cc(C(=O)N3Cc4cnn(CC)c4C3)cc3cc(C4=CCCN(C(=O)CC(=O)O)C4)n(CC(C)C)c23)c(C)n1 [Example I-801]	> 100000 nM
COC(=O)CCC#Cc1cccc2c1CC(C(=O)N1CCC=C(c3ccc4oc(C(=O)N(C)C)cc4c3)C1)N(C=O)C2 (stereo not drawn) [Example I-802, Methyl 5-(3-(5-(2-(dimethylcarbamoyl)benzofuran-5-yl)-1,2,3,6-tetrahydropyridine-1-carbonyl)-2-formyl-1,2,3,4-tetrahydroisoquinolin-5-yl)pent-4-ynoate]	100 to 1000 nM
COc1ccccc1-c1cc(C2=CCCN(C(=O)C3Cc4ccccc4CN3C=O)C2)cc2cc(C(=O)N(C)C)oc12 (stereo not drawn) [Example I-803, 5-(1-(2-formyl-1,2,3,4-tetrahydroisoquinoline-3-carbonyl)-1,2,5,6-tetrahydropyridin-3-yl)-7-(2-methoxyphenyl)-N,N-dimethylbenzofuran-2-carboxamide]	10000 to 100000 nM
COc1cc(F)cnc1N1CCN(C(=O)c2cc3c(Br)cc(C4=CCCN(C(=O)CCn5ccnn5)C4)c(F)c3[nH]2)CC1 [Example I-806, 1-(5-(4-bromo-7-fluoro-2-(4-(5-fluoro-3-methoxypyridin-2-yl)piperazine-1-carbonyl)-1H-indol-6-yl)-3,6-dihydropyridin-1(2H)-yl)-3-(1H-1,2,3-triazol-1-yl)propan-1-one]	10000 to 100000 nM and 100 to 1000 nM
COc1cccnc1N1CCN(C(=O)c2cc3c(-n4ccccc4=O)cc(C4=CCCN(C(=O)CCn5ccnn5)C4)c(F)c3[nH]2)CC1 [Example I-807, 1-(6-(1-(3-(1H-1,2,3-triazol-1-yl)propanoyl)-1,2,5,6-tetrahydropyridin-3-yl)-7-fluoro-2-(4-(3-methoxypyridin-2-yl)piperazine-1-carbonyl)-1H-indol-4-yl)pyridin-2(1H)-one]	< 100 nM

SMILES	IC50
CCc1cc(C)ncc1-c1cc(C2=CCCN(C(=O)C(C)C(=O)O)C2)c(F)c2[nH]c(C(=O)N3CCN(c4ncc(F)cc4OC)CC3)cc12 (stereo not drawn) [Example I-808, 3-(3-(4-(4-ethyl-6-methylpyridin-3-yl)-7-fluoro-2-(4-(5-fluoro-3-methoxypyridin-2-yl)piperazine-1-carbonyl)-1H-indol-6-yl)-5,6-dihydropyridin-1(2H)-yl)-2-methyl-3-oxopropanoic acid]	100 to 1000 nM and < 100 nM
CN(C)C(=O)c1cc2cc(C3=CCCN(C(=O)CCc4nccs4)C3)ccc2o1 [Example I-815]	100 to 1000 nM
CN(C)C(=O)c1cc2ccc(C3=CCCN(C(=O)CCn4ccnn4)C3)cc2s1 [Example I-816]	100 to 1000 nM
CCCN(C)C(=O)c1cc2cc(C3=CCCN(C(=O)CCn4ccnn4)C3)ccc2o1 [Example I-817]	100 to 1000 nM
CN(C)C(=O)c1cc2cc(C3=CCCN(C(=O)CCn4ccnn4)C3)cnc2[nH]1 [Example I-819]	100 to 1000 nM
CN(C)C(=O)c1cc2cc(C3=CCCN(C(=O)CCc4cccnn4)C3)ccc2o1 [Example I-820]	100 to 1000 nM
CN(C)C(=O)c1cc2ccc(C3=CCCN(C(=O)CCc4nccs4)C3)cc2[nH]1 [Example I-821]	100 to 1000 nM
CN(C)C(=O)c1cc2ccc(C3=CCCN(C(=O)C4Cc5ccccc5CN4C=O)C3)cc2[nH]1 (stereo not drawn) [Example I-822]	100 to 1000 nM
COC(=O)CCC#Cc1cc(C2=CCCN(C(=O)C3Cc4ccccc4CN3C=O)C2)cc2cc(C(=O)N(C)C)oc12 (stereo not drawn) [Example I-823]	< 100 nM
CN(C)C(=O)c1cc2cc(C3=CCCN(C(=O)CCc4nncs4)C3)ccc2o1 [Example I-824]	100 to 1000 nM
CC(C(=O)N1CCC=C(c2ccc3cc(C(=O)N(C)C)[nH]c3c2)C1)n1ccccc1=O (stereo not drawn) [Example I-825]	100 to 1000 nM
CN(C)C(=O)c1cc2ccc(C3=CCCN(C(=O)CCn4cccn4)C3)cc2[nH]1 [Example I-826]	100 to 1000 nM
Cc1cnnn1CCC(=O)N1CCC=C(c2ccc3cc(C(=O)N(C)C)[nH]c3c2)C1 [Example I-827]	100 to 1000 nM
CN(C)C(=O)c1cc2ccc(C3=CCCN(C(=O)CCc4nncs4)C3)cc2[nH]1 [Example I-828]	100 to 1000 nM
CN(C)C(=O)c1cc2ccc(C3=CCCN(C(=O)CCc4ccno4)C3)cc2[nH]1 [Example I-829]	100 to 1000 nM
CN(C)C(=O)c1cc2cc([C@H]3CCCN(C(=O)CCn4ccnn4)C3)ccc2o1 [Example I-830]	100 to 1000 nM
CN(C)C(=O)c1cc2ccc(C3=CCCN(C(=O)CCc4ccon4)C3)cc2[nH]1 [Example I-831]	100 to 1000 nM
CN(C)C(=O)c1cc2cc(C3=CCCN(C(=O)C(Cn4ccnn4)c4cccc(CO)c4)C3)ccc2o1 (stereo not drawn) [Example I-832]	1000 to 10000 nM
CN(C)C(=O)c1cc2cc(C3=CCCN(C(=O)C(Cn4ccnn4)c4cccc(CO)c4)C3)ccc2o1 (stereo not drawn) [Example I-833]	100 to 1000 nM

SMILES	IC50
C[C@@H](C(=O)N1CCC=C(c2ccc3cc(C(=O)N(C)C)[nH]c3c2)C1)n1ccccc1=O [Example I-834]	100 to 1000 nM
CN(C)C(=O)c1cc2cc(C3=CCCN(C(=O)C(Cn4ccnn4)c4cccc(C#N)c4)C3)ccc2o1 (stereo not drawn) [Example I-835]	100 to 1000 nM
COc1ccccc1-c1cc(C2=CCCN(C(=O)C(C)C)C2)c(F)c2[nH]c(C(=O)N(C)C)cc12 [Example I-837]	100 to 1000 nM
COc1ccccc1-c1cc(C2=CCCN(C(=O)C3Cc4ccccc4CN3C=O)C2)cc2cc(C(=O)N(C)C)oc12 (stereo not drawn) [Example I-838]	< 100 nM
COc1ccccc1-c1cc(C2=CCCN(C(=O)[C@H]3Cc4ccccc4CN3C=O)C2)cc2cc(C(=O)N(C)C)oc12 [Example I-839]	< 100 nM
CN(C)C(=O)c1cc2c(C3CCCCC3)cc([C@H]3CCCN(C(=O)CCn4cccn4)C3)c(F)c2[nH]1 [Example I-840]	< 100 nM
COc1ccccc1-c1cc(C2=CCCN(C(=O)CCn3ccnn3)C2)c(F)c2[nH]c(C(=O)N3CCN(C)CC3)cc12 [Example I-841]	< 100 nM
COc1ccccc1-c1cc(C2=CCCN(C(=O)CCn3ccnn3)C2)c(F)c2[nH]c(C(=O)N3CCCC3)cc12 [Example I-842]	< 100 nM
COc1ccccc1-c1cc(C2=CCCN(C(=O)CCn3ccnn3)C2)c(F)c2[nH]c(C(=O)N3CCN(CCCF)CC3)cc12 [Example I-843]	< 100 nM
CN(C)CCN(C)C(=O)c1cc2cc(C3=CCCN(C(=O)CCn4ccnn4)C3)ccc2o1 [Example I-844]	100 to 1000 nM
CN(C)C(=O)c1cc2cc(C3=CCCN(C(=O)CCn4ccnn4)C3)cc(-c3cccc4c3CN(C)C4=O)c2o1 [Example I-845]	< 100 nM
COc1ccccc1-c1cc(C2=CCCN(C(=O)CCn3ccnn3)C2)c(F)c2[nH]c(C(=O)N3CCc4cccnc43)cc12 [Example I-848]	< 100 nM
COc1ccccc1-c1cc(C2=CCCN(C(=O)CCn3ccnn3)C2)c(F)c2[nH]c(C(=O)N3CCC(Nc4ncccn4)CC3)cc12 [Example I-849]	< 100 nM
COc1ccccc1-c1cc(C2=CCCN(C(=O)CCn3ccnn3)C2)c(F)c2[nH]c(C(=O)N3CCCN(c4ccc(F)cn4)CC3)cc12 [Example I-850]	< 100 nM
COc1ccccc1-c1cc(C2=CCCN(C(=O)CCn3ccnn3)C2)c(F)c2[nH]c(C(=O)N3CCc4n[nH]cc4C3)cc12 [Example I-851]	< 100 nM
COc1ccccc1-c1cc(C2=CCCN(C(=O)CCn3ccnn3)C2)c(F)c2[nH]c(C(=O)N3CCN(Cc4ccc(Br)cc4)CC3)cc12 [Example I-852]	100 to 1000 nM
Cc1ccc(-c2cc(C3=CCCN(C(=O)CCn4ccnn4)C3)cc3cc(C(=O)N(C)C)oc23)c(O)c1 [Example I-853]	< 100 nM
COc1ccc(-c2cc(C3=CCCN(C(=O)CCn4ccnn4)C3)cc3cc(C(=O)N(C)C)oc23)c(C#N)c1 [Example I-854]	< 100 nM
CN(C)C(=O)c1cc2cc(C3=CCCN(C(=O)CCn4ccnn4)C3)cc(-c3cc(C(F)(F)F)nn3C)c2o1 [Example I-855]	< 100 nM
